Assays:
Homo sapiens = organism: Homo sapiens; experiment: Selectivity index, ratio of IC50 for human recombinant COX1 to IC50 for human recombinant COX2 using arachidonic acid as substrate
Rattus norvegicus [1] = experiment: Anti-inflammatory activity in albino rat model of carrageenan-induced paw edema assessed as inhibition of carrageenan-induced paw edema at 100 mg/kg, po administered as single dose prior to carrageenan challenge measured after 1 hr relative to control; type: functional
Rattus norvegicus [2] = experiment: Anti-inflammatory activity in albino rat model of carrageenan-induced paw edema assessed as paw edema thickness at 100 mg/kg, po administered as single dose prior to carrageenan challenge measured after 12 hrs; type: functional
Rattus norvegicus [3] = experiment: Anti-inflammatory activity in albino rat model of carrageenan-induced paw edema assessed as inhibition of carrageenan-induced paw edema at 100 mg/kg, po administered as single dose prior to carrageenan challenge measured after 4 hrs relative to control; type: functional
[4] = target: T1, Prostaglandin G/H synthase 2 (Homo sapiens, UniProt P35354); experiment: Inhibition of human recombinant COX2 assessed as decrease in prostaglandin production using arachidonic acid as substrate pretreated for 15 mins followed by substrate addition and measured after 2 mins by enzyme immunoassay
T1 sequence (P35354 whole entry): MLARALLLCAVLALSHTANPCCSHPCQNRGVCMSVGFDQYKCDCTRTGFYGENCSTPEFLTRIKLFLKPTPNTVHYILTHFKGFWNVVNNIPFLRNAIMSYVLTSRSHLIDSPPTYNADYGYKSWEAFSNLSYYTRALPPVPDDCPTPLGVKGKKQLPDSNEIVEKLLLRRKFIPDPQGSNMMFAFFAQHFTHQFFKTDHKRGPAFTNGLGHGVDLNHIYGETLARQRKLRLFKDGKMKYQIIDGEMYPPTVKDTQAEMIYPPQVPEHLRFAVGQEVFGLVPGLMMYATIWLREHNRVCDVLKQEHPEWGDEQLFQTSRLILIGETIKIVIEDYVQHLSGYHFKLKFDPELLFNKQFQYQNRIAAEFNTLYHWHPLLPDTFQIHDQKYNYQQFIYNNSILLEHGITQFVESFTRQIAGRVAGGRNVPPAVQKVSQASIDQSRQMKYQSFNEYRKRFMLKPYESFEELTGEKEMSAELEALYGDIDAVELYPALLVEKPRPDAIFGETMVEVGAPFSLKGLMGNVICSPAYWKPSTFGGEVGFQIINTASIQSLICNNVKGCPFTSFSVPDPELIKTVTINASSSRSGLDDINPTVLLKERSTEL

[5] = target: Prostaglandin G/H synthase 1 (Homo sapiens, UniProt P23219); experiment: Inhibition of human recombinant COX1 assessed as decrease in prostaglandin production using arachidonic acid as substrate pretreated for 15 mins followed by substrate addition and measured after 2 mins by enzyme immunoassay; type: single protein
Prostaglandin G/H synthase 1, sequence (P23219 whole entry): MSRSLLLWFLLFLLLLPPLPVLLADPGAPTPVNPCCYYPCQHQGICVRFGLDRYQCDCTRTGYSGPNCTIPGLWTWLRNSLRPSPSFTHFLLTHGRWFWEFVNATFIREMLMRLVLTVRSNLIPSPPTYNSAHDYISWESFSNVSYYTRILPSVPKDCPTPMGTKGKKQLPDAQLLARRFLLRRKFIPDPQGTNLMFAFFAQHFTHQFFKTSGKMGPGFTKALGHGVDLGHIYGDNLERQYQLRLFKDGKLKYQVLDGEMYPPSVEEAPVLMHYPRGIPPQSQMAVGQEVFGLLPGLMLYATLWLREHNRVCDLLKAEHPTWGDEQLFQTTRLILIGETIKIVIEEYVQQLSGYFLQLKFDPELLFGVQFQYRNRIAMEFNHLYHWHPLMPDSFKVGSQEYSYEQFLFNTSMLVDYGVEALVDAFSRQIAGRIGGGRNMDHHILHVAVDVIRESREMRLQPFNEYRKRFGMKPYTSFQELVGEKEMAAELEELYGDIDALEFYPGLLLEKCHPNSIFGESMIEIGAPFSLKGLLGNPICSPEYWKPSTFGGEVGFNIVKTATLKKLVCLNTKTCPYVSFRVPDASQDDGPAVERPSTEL

Rattus norvegicus [6] = experiment: Anti-inflammatory activity in albino rat model of carrageenan-induced paw edema assessed as paw edema thickness at 100 mg/kg, po administered as single dose prior to carrageenan challenge measured after 8 hrs; type: functional
Rattus norvegicus [7] = experiment: Anti-inflammatory activity in albino rat model of carrageenan-induced paw edema assessed as inhibition of carrageenan-induced paw edema at 100 mg/kg, po administered as single dose prior to carrageenan challenge measured after 3 hrs relative to control; type: functional
Rattus norvegicus [8] = experiment: Anti-inflammatory activity in albino rat model of carrageenan-induced paw edema assessed as inhibition of carrageenan-induced paw edema at 100 mg/kg, po administered as single dose prior to carrageenan challenge measured after 8 hrs relative to control; type: functional

Compound | Ratio IC50 (Homo sapiens) | IC50 [4] | IC50 [5] | inhibition in vivo at 100 mg/kg (Rattus norvegicus [1]) | Activity (Rattus norvegicus [2]) | inhibition in vivo at 100 mg/kg (Rattus norvegicus [3]) | Activity (Rattus norvegicus [6]) | inhibition in vivo at 100 mg/kg (Rattus norvegicus [7]) | inhibition in vivo at 100 mg/kg (Rattus norvegicus [8])
N#CC1=C(N)OC(c2ccc(Cl)cc2)=CC1c1cn(-c2ccccc2)nc1-c1ccc(OCc2ccccc2)cc1 (stereo unspecified) | 0.831 | 11.6 µM | 9.68 µM | 28.8% | 1.85 mm | 18.2% | 2.31 mm | 38.2% | 
NC(=S)n1nc(-c2ccccc2)cc1-c1cn(-c2ccccc2)nc1-c1ccc(OCc2ccccc2)cc1 | 1 | 5.2 µM | 5.2 µM | 3.97% | 1.8 mm | 2.15% | 2.2 mm | 7.29% | 
NC(=S)n1nc(-c2ccc(Cl)cc2)cc1-c1cn(-c2ccccc2)nc1-c1ccc(OCc2ccccc2)cc1 | 1.31 | 4.69 µM | 6.07 µM | 47.5% | 1.89 mm | 24.5% |  | 24.6% | 5.9%
Nc1nc(-c2ccc(Cl)cc2)cc(-c2cn(-c3ccccc3)nc2-c2ccc(OCc3ccccc3)cc2)n1 | 0.15 | 3.99 µM | 0.6 µM | 50.8% | 1.8 mm | 20.4% | 2.17 mm | 30.4% | 

Now those with a lower IC50 [4], led by results:

Ratio IC50 (Homo sapiens) | IC50 [4] | IC50 [5] | Compound | inhibition in vivo at 100 mg/kg (Rattus norvegicus [1]) | Activity (Rattus norvegicus [2]) | inhibition in vivo at 100 mg/kg (Rattus norvegicus [3]) | Activity (Rattus norvegicus [6]) | inhibition in vivo at 100 mg/kg (Rattus norvegicus [7]) | inhibition in vivo at 100 mg/kg (Rattus norvegicus [8])
0.975 | 2.79 µM | 2.72 µM | CC(=O)n1nc(-c2ccc(Cl)cc2)cc1-c1cn(-c2ccccc2)nc1-c1ccc(OCc2ccccc2)cc1 | 69.8% | 1.82 mm | 25.8% | 2.17 mm | 49.7% | 
4.54 | 2.11 µM | 9.57 µM | c1ccc(COc2ccc(-c3nn(-c4ccccc4)cc3-c3cc(-c4ccccc4)no3)cc2)cc1 | 73.8% | 1.83 mm | 28.4% |  | 42.5% | 6.9%
0.31 | 1 µM | 0.31 µM | S=c1nc(-c2ccccc2)cc(-c2cn(-c3ccccc3)nc2-c2ccc(OCc3ccccc3)cc2)[nH]1 | 48.5% | 1.88 mm | 14.6% | 2.19 mm | 33.8% | 

Source: ChEMBL document CHEMBL4373665, “Discovery of new non-acidic lonazolac analogues with COX-2 selectivity as potent anti-inflammatory agents” (Medchemcomm, 2019)
